Data: US9527832B2, “Substituted condensed pyrimidine compounds” (GRÜNENTHAL GMBH, priority 2013, dated 2016)

Target: T1, human PDE4B1 (Homo sapiens, UniProt Q07343)
T1 construct: host or cells: Sf9 cells
Assay: cAMP HTRF assay to determine the activity of hPDE4B1
Type: biochemical
Conditions: for inhibition at 1 µM: Percentage inhibition of PDE4B at 1 μM test concentration; for IC50: dose response measurements with eight concentrations, reported as ranges, read-out: IC50
Experimental: cAMP HTRF® Assay to Determine the Activity of hPDE4B1
The inhibiting effect of the compounds on the enzyme activity of human PDE4B1 was measured by the quantification of 5′-adenosine monophosphate (5′-AMP), which is formed from 3′,5′-cyclic adenosine monophosphate (cAMP). Human recombinant enzyme, expressed in Sf9 cells, and the HTRF (homogeneous time-resolved fluorescence) detection method were used in the assay.
The test compound or water (control) was mixed with the human recombinant PDE4B1 enzyme (4.8 U) in a buffer consisting of 44.4 mM tris-HCl, 5.28 mM MgCl2, 2.64 mM DTT and 0.044% Tween 20 (pH 7.8). After adding the cAMP enzyme substrate (final concentration 40 nM), the mixture was incubated for 30 minutes at room temperature. Then a fluorescence acceptor (Dye2 marked with cAMP), a fluorescence donor (anti-cAMP antibody marked with a europium cryptate) and the non-specific phosphodiesterase inhibitor IBMX (3-isobutyl-1-methylxanthine; final concentration 1 mM) were added. After 60 minutes the fluorescence transfer, which correlates with the amount of remaining cAMP, was measured with a microplate reader (Rubystar, BMG) at λex=337 nm, λem=620 nm and λem=665 nm. The enzyme activity was calculated from the quotient formed from the measured signal at 665 nm and that at 620 nm. The result was expressed as the percentage inhibition of enzyme activity of the control (without PDE4 inhibitor). The enzyme was omitted for measurement of the basal control.
IC50 values (IC50=concentration causing a half-maximal inhibition of control specific activity) were derived from dose response measurements with eight different concentrations (n=2; N=1-2).
Literature: N. Saldou et al., Comparison of recombinant human PDE4 isoforms: interaction with substrate and inhibitors, Cell. Signal. Vol. 10, No. 6, 427-440, 1998

T1 sequence (Q07343 whole entry): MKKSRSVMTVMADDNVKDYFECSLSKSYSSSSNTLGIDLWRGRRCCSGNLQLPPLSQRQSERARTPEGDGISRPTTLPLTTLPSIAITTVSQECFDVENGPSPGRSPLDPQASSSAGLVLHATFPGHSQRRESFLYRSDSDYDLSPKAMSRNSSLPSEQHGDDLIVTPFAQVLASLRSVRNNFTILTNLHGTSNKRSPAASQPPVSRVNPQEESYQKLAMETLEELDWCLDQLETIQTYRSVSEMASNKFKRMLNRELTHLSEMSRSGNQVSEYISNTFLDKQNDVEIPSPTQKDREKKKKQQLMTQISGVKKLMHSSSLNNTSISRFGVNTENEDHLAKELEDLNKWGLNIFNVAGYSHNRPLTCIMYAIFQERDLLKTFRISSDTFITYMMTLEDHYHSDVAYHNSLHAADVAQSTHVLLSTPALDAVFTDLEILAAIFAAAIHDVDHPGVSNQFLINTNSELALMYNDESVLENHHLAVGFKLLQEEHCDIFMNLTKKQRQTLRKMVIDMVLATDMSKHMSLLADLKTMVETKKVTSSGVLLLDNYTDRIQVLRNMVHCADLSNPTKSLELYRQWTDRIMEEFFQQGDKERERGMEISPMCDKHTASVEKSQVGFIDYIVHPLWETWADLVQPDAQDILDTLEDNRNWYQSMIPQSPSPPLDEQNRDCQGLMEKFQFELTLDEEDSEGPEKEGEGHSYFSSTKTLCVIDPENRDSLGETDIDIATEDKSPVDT

SMILES | inhibition at 1 µM [%] | IC50 [nM]
CN(C)C(=O)COc1ccc2c(c1)N(c1nc(-c3cccc(S(C)(=O)=O)c3)nc3c1C[S+]([O-])C3)CC2 (centres unmarked) [2-107, N,N-Dimethyl-2-[[1-[2-(3-methylsulfonyl-phenyl)-6-oxo-5,7-dihydro-thieno[3,4-d]pyrimidin-4-yl]-2,3-dihydro-1H-indol-6-yl]oxy]-acetamide] | 113 | < 100
O=C(COc1ccc2c(c1)N(c1nc(-c3ccc(Cl)s3)nc3c1CCC3)CC2)N1CCC1 [Compound No. 2-127, 1-(Azetidin-1-yl)-2-((1-(2-(5-chlorothiophen-2-yl)-6,7-dihydro-5H-cyclopenta[d]pyrimidin-4-yl)indolin-6-yl)oxy)ethanone] | 43 | 
CN(C)C(=O)COc1ccc2c(c1)N(c1nc(-c3ccc4cc[nH]c4c3)nc3c1C[S+]([O-])C3)CC2 (centres unmarked) [2-147, 2-[[1-[2-(1H-Indol-6-yl)-6-oxo-5,7-dihydro-thieno[3,4-d]pyrimidin-4-yl]-2,3-dihydro-1H-indol-6-yl]oxy]-N,N-dimethyl-acetamide] | 86 | < 100
CN(C)C(=O)COc1ccc2c(c1)N(c1nc(-c3ccc(F)c(F)c3)nc3c1CS(=O)(=O)C3)CC2 [Compound No. 2-41, 2-((1-(2-(3,4-Difluorophenyl)-6,6-dioxido-5,7-dihydrothieno[3,4-d]pyrimidin-4-yl)indolin-6-yl)oxy)-N,N-dimethylacetamide] | 85 | < 100
O=C(COc1ccc2c(c1)N(c1nc(-c3ccc(Cl)s3)nc3c1CCC3)CC2)NCCO [Compound No. 2-69, 2-((1-(2-(5-Chlorothiophen-2-yl)-6,7-dihydro-5H-cyclopenta[d]pyrimidin-4-yl)indolin-6-yl)oxy)-N-(2-hydroxyethyl)acetamide] | 4 | 
CN(C)C(=O)COc1ccc2c(c1)N(c1nc(-c3ccc(Cl)s3)nc3c1CS(=O)(=O)C3)CC2 [Compound No. 2-45, 2-((1-(2-(5-Chlorothiophen-2-yl)-6,6-dioxido-5,7-dihydrothieno[3,4-d]pyrimidin-4-yl)indolin-6-yl)oxy)-N,N-dimethylacetamide] | 105 | < 100
NC(=O)c1ccc(-c2nc3c(c(N4CCc5cc(CC(=O)O)ccc54)n2)CCC3)s1 [Compound No. 1-75, 2-(1-(2-(5-Carbamoylthiophen-2-yl)-6,7-dihydro-5H-cyclopenta[d]pyrimidin-4-yl)indolin-5-yl)acetic acid] | 101 | < 100
CN(C)C(=O)COc1ccc2c(c1)N(c1nc(-c3cncnc3)nc3c1C[S+]([O-])C3)CC2 (centres unmarked) [2-144, N,N-Dimethyl-2-[[1-(6-oxo-2-pyrimidin-5-yl-5,7-dihydro-thieno[3,4-d]pyrimidin-4-yl)-2,3-dihydro-1H-indol-6-yl]oxy]-acetamide] | 92 | 100 to 1000
CN(C)C(=O)COc1ccc2c(c1)N(c1nc(-c3cccc(C#N)c3)nc3c1C[S+]([O-])C3)CC2 (centres unmarked) [2-98, 2-[[1-[2-(3-Cyano-phenyl)-6-oxo-5,7-dihydro-thieno[3,4-d]pyrimidin-4-yl]-2,3-dihydro-1H-indol-6-yl]oxy]-N,N-dimethyl-acetamide] | 98 | < 100
Cc1ccc(-c2nc3c(c(N4CCc5ccc(OCC(=O)N(C)C)cc54)n2)C[S+]([O-])C3)cc1 (centres unmarked) [2-87, N,N-Dimethyl-2-[[1-(6-oxo-2-p-tolyl-5,7-dihydro-thieno[3,4-d]pyrimidin-4-yl)-2,3-dihydro-1H-indol-6-yl]oxy]-acetamide] | 112 | < 100
CN(C)C(=O)COc1ccc2c(c1)N(c1nc(-c3ccncc3)nc3c1CS(=O)(=O)C3)CC2 [Compound No. 2-132, 2-((1-(6,6-Dioxido-2-(pyridin-4-yl)-5,7-dihydrothieno[3,4-d]pyrimidin-4-yl)indolin-6-yl)oxy)-N,N-dimethylacetamide] | 91 | < 100
O=C(O)c1ccc2c(c1)ncn2-c1nc(-c2ccc(Cl)s2)nc2c1CCC2 (single isomer, unassigned) [Compound No. 1-63, 1-(2-(5-Chlorothiophen-2-yl)-6,7-dihydro-5H-cyclopenta[d]pyrimidin-4-yl)-1H-benzo[d]imidazole-5-carboxylic acid] | 35 | 
CN(CC1CC1)C(=O)COc1ccc2c(c1)N(c1nc(-c3ccc(Cl)s3)nc3c1CCC3)CC2 [Compound No. 2-67, 2-((1-(2-(5-Chlorothiophen-2-yl)-6,7-dihydro-5H-cyclopenta[d]pyrimidin-4-yl)indolin-6-yl)oxy)-N-(cyclopropylmethyl)-N-methylacetamide] | 6 | 
CN(C)C(=O)COc1ccc2c(c1)ncn2-c1nc(-c2ccc(Cl)s2)nc2c1C[S+]([O-])C2 (single isomer, unassigned) [Compound No. 2-75, 2-((1-(2-(5-Chlorothiophen-2-yl)-6-oxido-5,7-dihydrothieno[3,4-d]pyrimidin-4-yl)-1H-benzo[d]imidazol-5-yl)oxy)-N,N-dimethylacetamide] | 39 | 
CN(C)CCOc1ccc2c(c1)N(c1nc(-c3ccc(Cl)s3)nc3c1CCC3)CC2 [Compound No. 3-7, 2-((1-(2-(5-Chlorothiophen-2-yl)-6,7-dihydro-5H-cyclopenta[d]-pyrimidin-4-yl)indolin-6-yl)oxy)-N,N-dimethylethanamine] | 48 | 
CC(C)NC(=O)COc1ccc2c(c1)N(c1nc(-c3ccc(Cl)s3)nc3c1CCC3)CC2 [Compound No. 2-66, 2-((1-(2-(5-Chlorothiophen-2-yl)-6,7-dihydro-5H-cyclopenta[d]pyrimidin-4-yl)indolin-6-yl)oxy)-N-isopropylacetamide] | 32 | 
CN(C(=O)COc1ccc2c(c1)N(c1nc(-c3ccc(Cl)s3)nc3c1CS(=O)(=O)C3)CC2)C1CC1 [Compound No. 2-56, 2-((1-(2-(5-Chlorothiophen-2-yl)-6,6-dioxido-5,7-dihydrothieno[3,4-d]pyrimidin-4-yl)indolin-6-yl)oxy)-N-cyclopropyl-N-methylacetamide] | 68 | 100 to 1000
CN(C)C(=O)COc1ccc2c(c1)N(c1nc(-c3cccc(Cl)c3)nc3c1C[S+]([O-])C3)CC2 (centres unmarked) [2-89, 2-[[1-[2-(3-Chlorophenyl)-6-oxo-5,7-dihydro-thieno[3,4-d]pyrimidin-4-yl]-2,3-dihydro-1H-indol-6-yl]oxy]-N,N-dimethyl-acetamide] | 119 | < 100
CN(C)C(=O)COc1ccc2cnn(-c3nc(-c4ccc(Cl)s4)nc4c3C[S+]([O-])C4)c2c1 (centres unmarked) [Compound No. 2-72, 2-((1-(2-(5-Chlorothiophen-2-yl)-6-oxido-5,7-dihydrothieno[3,4-d]pyrimidin-4-yl)-1H-indazol-6-yl)oxy)-N,N-dimethylacetamide] | 102 | < 100
CN(C)C(=O)COc1ccc2c(c1)N(c1nc(-c3cccc(F)c3)nc3c1C[S+]([O-])C3)CC2 (centres unmarked) [2-24, 2-[[1-[2-(3-Fluorophenyl)-6-oxo-5,7-dihydro-thieno[3,4-d]pyrimidin-4-yl]-2,3-dihydro-1H-indol-6-yl]oxy]-N,N-dimethyl-acetamide] | 115 | < 100
COc1ccc(-c2nc3c(c(N4CCc5ccc(OCC(=O)N(C)C)cc54)n2)CS(=O)(=O)C3)cc1 [Compound No. 2-21, 2-((1-(2-(4-Methoxyphenyl)-6,6-dioxido-5,7-dihydrothieno[3,4-d]pyrimidin-4-yl)indolin-6-yl)oxy)-N,N-dimethylacetamide] | 88 | < 100
O=C(O)Cc1ccc2c(c1)CCN2c1nc(-c2csc(Cl)c2)nc2c1CCC2 [Compound No. 1-19, 2-(1-(2-(5-Chlorothiophen-3-yl)-6,7-dihydro-5H-cyclopenta[d]pyrimidin-4-yl)indolin-5-yl)acetic acid] | 85 | < 100
O=C(COc1ccc2c(c1)N(c1nc(-c3ccc(Cl)s3)nc3c1C[S+]([O-])C3)CC2)N1CCCC1 (centres unmarked) [Compound No. 2-116, 2-((1-(2-(5-Chlorothiophen-2-yl)-6-oxido-5,7-dihydrothieno[3,4-d]pyrimidin-4-yl)indolin-6-yl)oxy)-1-(pyrrolidin-1-yl)ethanone] | 121 | 
CN1CCN(C(=O)COc2ccc3c(c2)N(c2nc(-c4ccc(Cl)s4)nc4c2CCC4)CC3)CC1 [Compound No. 2-129, 2-((1-(2-(5-Chlorothiophen-2-yl)-6,7-dihydro-5H-cyclopenta[d]pyrimidin-4-yl)indolin-6-yl)oxy)-1-(4-methylpiperazin-1-yl)ethanone] | 48 | 
O=C(COc1ccc2c(c1)N(c1nc(-c3ccncc3)nc3c1CS(=O)(=O)C3)CC2)N1CCC1 [Compound No. 2-131, 1-(Azetidin-1-yl)-2-((1-(6,6-dioxido-2-(pyridin-4-yl)-5,7-dihydrothieno[3,4-d]pyrimidin-4-yl)indolin-6-yl)oxy)ethanone] | 90 | < 100
